Reference: patent US8501770B2 (ArQule, Inc., priority 2009, dated 2013)

Target: Full-length inactive AKT1 (Homo sapiens, UniProt P31749)
Assay: Inactive Akt Alpha Screen Assay
Format: biochemical
Details: values not marked with "*"; read-out: Akt1 IC50, (AlphaScreen)
Outline: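 AlphaScreen read-out (excitation 640 nm, emission 570 nm) after 90 min incubation at room temperature in the dark. Signal comes from crosstide phosphorylation by AKT1, which was activated by added PDK1, MAPKAPK2, ATP and lipid vesicles, captured via phospho-AKT substrate antibody and streptavidin beads.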

Full-length inactive AKT1, sequence (P31749 whole entry): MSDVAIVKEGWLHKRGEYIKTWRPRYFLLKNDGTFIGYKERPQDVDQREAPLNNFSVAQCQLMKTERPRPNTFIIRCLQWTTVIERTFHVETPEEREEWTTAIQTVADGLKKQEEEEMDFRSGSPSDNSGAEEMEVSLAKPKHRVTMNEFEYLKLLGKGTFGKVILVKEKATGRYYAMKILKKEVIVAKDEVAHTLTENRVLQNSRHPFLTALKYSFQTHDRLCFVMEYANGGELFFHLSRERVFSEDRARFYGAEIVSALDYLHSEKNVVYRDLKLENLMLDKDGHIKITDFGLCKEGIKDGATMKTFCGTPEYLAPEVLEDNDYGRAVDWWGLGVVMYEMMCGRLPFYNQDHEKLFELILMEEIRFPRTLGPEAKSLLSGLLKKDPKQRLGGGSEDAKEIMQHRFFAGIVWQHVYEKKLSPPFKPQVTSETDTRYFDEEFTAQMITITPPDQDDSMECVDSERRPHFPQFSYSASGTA

Row | IC50 | SMILES
1 | 42 nM | CC(=O)Nc1ccc(C(=O)NCc2ccc(-n3c(-c4cccnc4N)nc4cc(-c5cccnc5)cnc43)cc2)cc1 [Example 238, 4-acetamido-N-(4-(2-(2-aminopyridin-3-yl)-6-(pyridin-3-yl)-3H-imidazo[4,5-b]pyridin-3-yl)benzyl)benzamide]
2 | 21 nM | Nc1ncccc1-c1nc2cc(-c3cccnc3)cnc2n1-c1ccc(CNC(=O)c2cccc(F)c2)cc1 [Example 239, N-(4-(2-(2-aminopyridin-3-yl)-6-(pyridin-3-yl)-3H-imidazo[4,5-b]pyridin-3-yl)benzyl)-3-fluorobenzamide]
3 | 16 nM | Nc1ncccc1-c1nc2cc(-c3ccc(C(=O)O)o3)cnc2n1-c1ccc(CNC(=O)c2ccccc2)cc1 [Example 240, 5-(2-(2-aminopyridin-3-yl)-3-(4-(benzamidomethyl)phenyl)-3H-imidazo[4,5-b]pyridin-6-yl)furan-2-carboxylic acid]
4 | 330 nM | CCOC(=O)Cc1ccc(-n2c(-c3cccnc3N)nc3ccc(Cl)nc32)cc1 [Example 241, ethyl 2-(4-(2-(2-aminopyridin-3-yl)-5-chloro-3H-imidazo[4,5-b]pyridin-3-yl)phenyl)acetate]
5 | 64 nM | CCOC(=O)Cc1ccc(-n2c(-c3cccnc3N)nc3ccc(-c4cccnc4)nc32)cc1 [Example 242, ethyl 2-(4-(2-(2-aminopyridin-3-yl)-5-(pyridin-3-yl)-3H-imidazo[4,5-b]pyridin-3-yl)phenyl)acetate]
6 | 320 nM | CCOC(=O)Cc1ccc(-n2c(-c3cccnc3N)nc3ccc(-c4cccc(NC(C)=O)c4)nc32)cc1 [Example 243, ethyl 2-(4-(5-(3-acetamidophenyl)-2-(2-aminopyridin-3-yl)-3H-imidazo[4,5-b]pyridin-3-yl)phenyl)acetate]
7 | 22 nM | Cc1ccc2cc(C(=O)NCc3ccc(-n4c(-c5cccnc5N)nc5cc(-c6cccnc6)cnc54)cc3)ccc2n1 [Example 244, N-(4-(2-(2-aminopyridin-3-yl)-6-(pyridin-3-yl)-3H-imidazo[4,5-b]pyridin-3-yl)benzyl)-2-methylquinoline-6-carboxamide]
8 | 14 nM | Cc1ccc2nc(-c3cccnc3N)n(-c3ccc(CNC(=O)c4ccc(C(C)C)cc4)cc3)c2n1 [Example 245, N-(4-(2-(2-aminopyridin-3-yl)-5-methyl-3H-imidazo[4,5-b]pyridin-3-yl)benzyl)-4-isopropylbenzamide]
9 | 20 nM | Cc1ccc2nc(-c3cccnc3N)n(-c3ccc(CNC(=O)c4ccccc4)cc3)c2n1 [Example 246, N-(4-(2-(2-aminopyridin-3-yl)-5-methyl-3H-imidazo[4,5-b]pyridin-3-yl)benzyl)benzamide]
10 | 16 nM | Cc1ccc2nc(-c3cccnc3N)n(-c3ccc(CNC(=O)c4cccc(F)c4)cc3)c2n1 [Example 247, N-(4-(2-(2-aminopyridin-3-yl)-5-methyl-3H-imidazo[4,5-b]pyridin-3-yl)benzyl)-3-fluorobenzamide]
11 | 28 nM | CC(=O)Nc1cccc(C(=O)NCc2ccc(-n3c(-c4cccnc4N)nc4ccc(C)nc43)cc2)c1 [Example 248, 3-acetamido-N-(4-(2-(2-aminopyridin-3-yl)-5-methyl-3H-imidazo[4,5-b]pyridin-3-yl)benzyl)benzamide]
12 | 25 nM | CC(=O)Nc1ccc(C(=O)NCc2ccc(-n3c(-c4cccnc4N)nc4ccc(C)nc43)cc2)cc1 [Example 249, 4-acetamido-N-(4-(2-(2-aminopyridin-3-yl)-5-methyl-3H-imidazo[4,5-b]pyridin-3-yl)benzyl)benzamide]
13 | 200 nM | CC(C)(C)OC(=O)NCc1ccc(-n2c(-c3cccnc3N)nc3cc(-c4cccnc4)cnc32)cc1 [Example 250, tert-butyl 4-(2-(2-aminopyridin-3-yl)-6-(pyridin-3-yl)-3H-imidazo[4,5-b]pyridin-3-yl)benzylcarbamate]
14 | 170 nM | Cn1cccc1C(=O)NCc1ccc(-n2c(-c3cccnc3N)nc3cc(-c4cccnc4)cnc32)cc1 [Example 252, N-(4-(2-(2-aminopyridin-3-yl)-6-(pyridin-3-yl)-3H-imidazo[4,5-b]pyridin-3-yl)benzyl)-1-methyl-1H-pyrrole-2-carboxamide]
15 | 27 nM | CC(=O)Nc1ccc(-c2ccc3nc(-c4cccnc4N)n(-c4ccc(NC(=O)c5ccccc5)cc4)c3n2)cc1 [Example 253, N-(4-(5-(4-acetamidophenyl)-2-(2-aminopyridin-3-yl)-3H-imidazo[4,5-b]pyridin-3-yl)phenyl)benzamide]
16 | 82 nM | Nc1ncccc1-c1nc2ccc(-c3ccccc3)nc2n1-c1ccc(NC(=O)c2ccccc2)cc1 [Example 254, N-(4-(2-(2-aminopyridin-3-yl)-5-phenyl-3H-imidazo[4,5-b]pyridin-3-yl)phenyl)benzamide]
17 | 12 nM | Nc1ncccc1-c1nc2ccc(-c3cccnc3)nc2n1-c1ccc(NC(=O)c2ccccc2)cc1 [Example 255, N-(4-(2-(2-aminopyridin-3-yl)-5-(pyridin-3-yl)-3H-imidazo[4,5-b]pyridin-3-yl)phenyl)benzamide]
18 | 19 nM | Nc1ncccc1-c1nc2ccc(-c3ccncc3)nc2n1-c1ccc(NC(=O)c2ccccc2)cc1 [Example 256, N-(4-(2-(2-aminopyridin-3-yl)-5-(pyridin-4-yl)-3H-imidazo[4,5-b]pyridin-3-yl)phenyl)benzamide]
19 | 46 nM | Nc1ncccc1-c1nc2ccc(-c3cccnc3)nc2n1-c1ccc(CC(=O)Nc2ccccc2)cc1 [Example 257, 2-(4-(2-(2-aminopyridin-3-yl)-5-(pyridin-3-yl)-3H-imidazo[4,5-b]pyridin-3-yl)phenyl)-N-phenylacetamide]
20 | 17 nM | CC(=O)Nc1cccc(NC(=O)Cc2ccc(-n3c(-c4cccnc4N)nc4ccc(-c5cccnc5)nc43)cc2)c1 [Example 258, N-(3-acetamidophenyl)-2-(4-(2-(2-aminopyridin-3-yl)-5-(pyridin-3-yl)-3H-imidazo[4,5-b]pyridin-3-yl)phenyl)acetamide]
21 | 530 nM | CC(=O)Nc1ccc(-c2ccc3nc(-c4cccnc4N)n(-c4ccc(CNC(=O)OC(C)(C)C)cc4)c3n2)cc1 [Example 259, tert-butyl 4-(5-(4-acetamidophenyl)-2-(2-aminopyridin-3-yl)-3H-imidazo[4,5-b]pyridin-3-yl)benzylcarbamate]
22 | 14 nM | Cc1ccc2cc(NC(=O)Cc3ccc(-n4c(-c5cccnc5N)nc5ccc(-c6cccnc6)nc54)cc3)ccc2n1 [Example 260, 2-(4-(2-(2-aminopyridin-3-yl)-5-(pyridin-3-yl)-3H-imidazo[4,5-b]pyridin-3-yl)phenyl)-N-(2-methylquinolin-6-yl)acetamide]
23 | 150 nM | Cc1ccc2nc(-c3cccnc3N)n(-c3ccc(CNC(=O)c4cccn4C)cc3)c2n1 [Example 262, N-(4-(2-(2-aminopyridin-3-yl)-5-methyl-3H-imidazo[4,5-b]pyridin-3-yl)benzyl)-1-methyl-1H-pyrrole-2-carboxamide]
24 | 110 nM | Cc1ccc2cc(C(=O)NCc3ccc(-n4c(-c5cccnc5N)nc5ccc(C)nc54)cc3)ccc2n1 [Example 263, N-(4-(2-(2-aminopyridin-3-yl)-5-methyl-3H-imidazo[4,5-b]pyridin-3-yl)benzyl)-2-methylquinoline-6-carboxamide]
25 | 93 nM | Cc1cnc2c(c1)nc(-c1cccnc1N)n2-c1ccc(CNC(=O)c2cccc(F)c2F)cc1 [Example 265, N-(4-(2-(2-aminopyridin-3-yl)-6-methyl-3H-imidazo[4,5-b]pyridin-3-yl)benzyl)-2,3-difluorobenzamide]
